pEC50, pIC50: −log10 of the molar value. Entries after “also recorded” stand apart in the source; their conditions may differ. Read-outs that look alike come from different tables or passages of the source.
Tests used:
Type in all cases: cell-based
[1] = system: cell-associated HIV-1 IIIB (infected SulT1 cells); assay: Cell-associated transmission assay (IIIB); settings: for pEC50: Human immunodeficiency virus 1, IIIB
Experimental: (§1) Anti-HIV activities of the compounds were evaluated according to the previously reported procedure. In summary, the HeLa (Human cervical carcinoma: ATCC CCL-2.1) cell line was used to measure the inactivation of both the cell-free virus preparations and virus-infected cell preparations. The cells were plated in culture plates 24 h prior to each experiment. Cell-free viral preparations of HIV-1 strains IIIB (lymphocytotropic strain) and BaL (monocytotropic strain) were used for the cell-free assay. For the cell-associated assay, the SulT1 cells were infected with IIIB virus 5 days prior to the experiment. Cell-free virus and virus-infected cells were mixed with different compounds and diluted to make different concentrations. The mixture was further diluted with the buffer and added to the HeLa cells.

[2] = system: HIV-1 strain IIIB (lymphocytotropic strain); assay: Single-round infection assay, cell-free X4 virus (lymphocytotropic strain); settings: Human immunodeficiency virus 1, IIIB
Experimental: as §1

[3] = system: HIV-1 strain BaL (monocytotropic strain); assay: Single-round infection assay, cell-free R5 virus (monocytotropic strain); settings: Human immunodeficiency virus 1, BAL
Experimental: as §1

Cytotoxicity assay (MTS) = settings: human, HeLa cells (ATCC CCL-2.1)
HIV-1 = assay: Anti-HIV activity overall (cell-free and cell-associated assays) and antiviral index
Excerpt: Table 2, Table 3 and Table 4 illustrate the anti-HIV-1 activities against the cell-free, cell-associated, and multidrug-resistant virus and sperm inhibiting properties of the selected compounds. In summary, the anti-HIV activity of 5′-substituted derivatives of FLT and AZT (5–18) was dependent on the nature of the 5′-substituent. […] None of the other esters were active against cell-associated virus. […] The difference in the activity of fatty acyl derivatives of FLT compared to each other and FLT may be due to their differences in the rate of uptake and intracellular hydrolysis.
By design, the ester moiety in the conjugates needs to be hydrolyzed to render parent nucleosides and fatty acids to produce anti-HIV activity. The anti-HIV activities of 5′-O-ether substituted FLT and AZT (3 and 4, Scheme 2) with a stable tetradecanyl (myristyl) group were compared with hydrolyzable 5′-O-ester substituted FLT and AZT (6 and 7).
as §1

HIV-1 A-17 MDR (B-NNRTI) = assay: PBMC multi-round infection assay, resistant isolate A-17; settings: Human immunodeficiency virus 1, PBMC
Experimental: (§2) Based on a preliminary screening, conjugates 5 and 8 were evaluated for their ability to inhibit a drug-resistant virus in a peripheral blood mononuclear cell (PBMC) assay. In this assay, FLT, 5, and 8 were tested against B- and C-wild type and A-17 and 4755–5 multidrug-resistant (MDR) clinical isolates of HIV-1, where compounds were incubated with PBMCs for 6 h and then washed off before the addition of the virus and further culture for 7 days.
(§3) For the assessment of compounds against the wild type (WT; R5; clones = 94US3393IN [B subtype] and 98USMSC5016 [C subtype]) and drug-resistant (clones = 4755−5 and A17) HIV-1 clinical isolates, PHA-P stimulated cells from at least two normal donors were pooled, diluted in fresh media, and plated in the interior wells of a 96-well round-bottom microplate. Pooling PBMCs from more than one donor was used to minimize the variability observed between the individual donors, which results from the quantitative and qualitative differences in HIV infection and overall response to the PHA and IL-2 of primary lymphocyte populations. Each plate contained virus/cell control wells (cells + virus), experimental wells (drug + cells + virus), and compound control wells (drug + media, no cells, necessary for MTS monitoring of cytotoxicity). Test drug dilutions were prepared in microtiter tubes, and each concentration was placed in appropriate wells. Following the addition of the drug dilutions to the PBMCs, a predetermined dilution of virus stock was then placed in each test well (final MOI ≅ 0.1). Because HIV-1 is not cytopathic to PBMCs, the same assay plate can be used for both the antiviral efficacy and cytotoxicity measurements. Compounds were incubated with virus and cells in a 96-well format for 6 h. The cells were then washed by removing 75% of the medium (150 μL) and replacing it with 150 μL of fresh (no drug) medium. The plates were then centrifuged (∼200 g) for 10 min, after which 150 μL of the medium was removed, and an additional 150 μL of fresh medium was added to each well and further incubated for 6 days or until peak reverse transcriptase (RT) activity was detected. A microtiter plate-based RT reaction was utilized. Incorporated radioactivity (counts per minute, CPM) was quantified using standard liquid scintillation techniques. Compound IC50 (50%, inhibition of virus replication) was calculated using statistical software and regression analysis. A cellular uptake study was conducted for fluorescence conjugates 23 and 24 using a previously published procedure with minor modifications. All of the experiments were conducted in triplicate.

[4] = system: HIV-1 98USMSC5016 (C-Wild Type); assay: PBMC multi-round infection assay, clinical isolate 98USMSC5016; settings: Human immunodeficiency virus 1
Experimental: as §2, §3

HIV-1 4755-5 MDR (B-MDR) = assay: PBMC multi-round infection assay, resistant isolate 4755-5; settings: Human immunodeficiency virus 1, PBMC
Experimental: as §2, §3

[5] = system: HIV-1 94US3393IN (B-Wild Type); assay: PBMC multi-round infection assay, clinical isolate 94US3393IN; settings: Human immunodeficiency virus 1
Experimental: as §2, §3

[6] = read-out: (CA) EC50, Table 2, cell-associated transmission assay (IIIB)
[7] = read-out: (CA) EC50, Table 3, cell-to-cell transmission assay (IIIB)
[8] = read-out: (X4) EC50, Table 2, single-round infection assay
[9] = read-out: (X4) EC50, Table 3, viral entry inhibition assay
[10] = read-out: (R5) EC50, Table 2, single-round infection assay
[11] = read-out: (R5) EC50, Table 3, viral entry inhibition assay
[12] = Table 2, MTS, 50% effective concentration
[13] = Table 3, conjugates vs physical mixtures
[14] = Table 2, single-round infection assay, read-out: (X4) EC50
[15] = Table 3, viral entry inhibition assay, read-out: (X4) EC50
[16] = Table 2, single-round infection assay, read-out: (R5) EC50
[17] = Table 3, viral entry inhibition assay, read-out: (R5) EC50

SMILES | pEC50 [1, 6] | pEC50 [2, 8] | pEC50 [3, 10] | pEC50 (Cytotoxicity assay (MTS); [12]) | also measured
CCCCCCCCCCCCCC(=O)OC[C@H]1O[C@@H](n2cc(C)c(=O)[nH]c2=O)C[C@@H]1N=[N+]=[N-] [Compound 7] | < 3.20 | 5.51 | 5.30 | < 3.20 | pEC50 [1, 7]: < 3.20; pEC50 [2, 9]: 5.51; pEC50 [3, 11]: 5.30; pEC50 (Cytotoxicity assay (MTS); [13]): < 3.20
CCCCCCCCCCCCCCOCC1OC(n2cc(C)c(=O)[nH]c2=O)CC1F (stereo not shown) [Compound 3, 3′-Fluoro-2′,3′-dideoxy-5′-O-(tetradecanyl)thymidine] | < 3.64 | 3.74 | 3.75 | 3.75 | anti-HIV activity (in words) (HIV-1): significantly less potent than the corresponding ester derivatives
CCCCCCCCCCCCC(OC)C(=O)OC[C@H]1O[C@@H](n2cc(C)c(=O)[nH]c2=O)C[C@@H]1F (mixture of isomers) [Compound 13, (±)-3′-Fluoro-2′,3′-dideoxy-5′-O-(2-methoxyteradecanoyl)thymidine] | < 3.69 | 6.00 | 6.70 | < 3.69 | anti-HIV activity (in words) (HIV-1): significant anti-HIV activity at noncytotoxic concentrations
CCCCCSCCCCCCCC(=O)OC[C@H]1O[C@@H](n2cc(C)c(=O)[nH]c2=O)C[C@@H]1F [Compound 15] | < 4.19 | 4.94 | 5.36 | < 4.19 | –
Cc1cn(C2CC(F)C(COC(=O)CCCCCCCCCCCN)O2)c(=O)[nH]c1=O (stereo not shown) [Compound 22, 3′-Fluoro-2′,3′-dideoxy-5′-O-(12-aminododecanoyl)thymidine] | < 3.64 | 5.47 | 5.80 | < 3.65 | anti-HIV activity (in words) (HIV-1): comparable to other fatty acyl derivatives of FLT
CCCCCCCCCCCCC(OC)C(=O)OC[C@H]1O[C@@H](n2cc(C)c(=O)[nH]c2=O)C[C@@H]1N=[N+]=[N-] (mixture of isomers) [Compound 14, (±)-3′-Azido-2′,3′-dideoxy-5′-O-(2-methoxyteradecanoyl)thymidine] | < 3.71 | 5.01 | 5.17 | < 3.71 | –
Cc1cn([C@H]2C[C@H](F)[C@@H](COC(=O)CCCCCCCCCCCBr)O2)c(=O)[nH]c1=O [Compound 11] | < 3.70 | 5.74 | > 6.70 | < 3.70 | –
CCCCCCCCCCOCCC(=O)OC[C@H]1O[C@@H](n2cc(C)c(=O)[nH]c2=O)C[C@@H]1N=[N+]=[N-] [Compound 17] | < 3.68 | 5.17 | 5.68 | < 3.68 | –
CCCCCSCCCCCCCC(=O)OC[C@H]1O[C@@H](n2cc(C)c(=O)[nH]c2=O)C[C@@H]1N=[N+]=[N-] [Compound 16] | < 3.69 | 5.03 | 4.89 | < 3.69 | –
CCCCCCCCCCCCCCOCC1OC(n2cc(C)c(=O)[nH]c2=O)CC1N=[N+]=[N-] (stereo not shown) [Compound 4, 3′-Azido-2′,3′-dideoxy-5′-O-(tetradecanyl)thymidine] | < 3.67 | 3.90 | 4.56 | 3.69 | anti-HIV activity (in words) (HIV-1): significantly less potent than the corresponding ester derivatives
Cc1cn([C@H]2C[C@H](F)[C@@H](CO)O2)c(=O)[nH]c1=O [FLT, 3′-fluoro-2′,3′-dideoxythymidine] | < 3.39 | – | – | < 3.39 | activity against cell-associated virus (in words) [1]: only inconsistently and moderately active; also recorded: not active at all; pEC50 [1, 7]: < 3.39; pEC50 [2, 14]: 6.10; pEC50 [2, 15]: 6.10; pIC50 (HIV-1 A-17 MDR (B-NNRTI)): 7.59; IC90 (HIV-1 A-17 MDR (B-NNRTI)): 0.0872 µM; pIC50 [4]: 8.70; IC90 [4]: 0.0123 µM; pIC50 (HIV-1 4755-5 MDR (B-MDR)): 6.97; IC90 (HIV-1 4755-5 MDR (B-MDR)): 1.06 µM; pEC50 [3, 16]: 6.40; pEC50 [3, 17]: 6.40; pEC50 (Cytotoxicity assay (MTS); [13]): < 3.39; pIC50 [5]: 8.70; IC90 [5]: 0.0204 µM
Cc1cn([C@H]2C[C@H](N=[N+]=[N-])[C@@H](COC(=O)CCCCCCCCCCCBr)O2)c(=O)[nH]c1=O [Compound 12] | < 3.72 | 4.83 | 5.34 | < 3.72 | pEC50 [1, 7]: < 3.72; pEC50 [2, 9]: 4.83; pEC50 [3, 11]: 5.34; pEC50 (Cytotoxicity assay (MTS); [13]): < 3.72
Cc1cn([C@H]2C[C@H](N=[N+]=[N-])[C@@H](CO)O2)c(=O)[nH]c1=O [AZT, 3′-azido-2′,3′-dideoxythymidine, reference compound] | < 3.43 | – | – | < 3.43 | activity against cell-associated virus (in words) [1]: only inconsistently and moderately active; pEC50 [1, 7]: < 3.43; pEC50 [2, 14]: 4.96; pEC50 [2, 15]: 4.96; pEC50 [3, 16]: 4.85; pEC50 [3, 17]: 4.85; pEC50 (Cytotoxicity assay (MTS); [13]): < 3.43
CCCCCCCCCCCCCCC(=O)OC[C@H]1O[C@@H](n2cc(C)c(=O)[nH]c2=O)C[C@@H]1N=[N+]=[N-] [Compound 10] | < 3.21 | 4.75 | 5.35 | < 3.21 | –
CCCCCOCCCCCCCC(=O)OC[C@H]1O[C@@H](n2cc(C)c(=O)[nH]c2=O)C[C@@H]1N=[N+]=[N-] [Compound 18] | < 3.68 | 5.32 | 5.21 | < 3.68 | –
CCSCCCCCCCCCCCC(=O)OC[C@H]1O[C@@H](n2cc(C)c(=O)[nH]c2=O)C[C@@H]1N=[N+]=[N-] [Compound 9] | 4.04 | 5.11 | 5.28 | < 4.00 | –

— paper PMC9143043, “Synthesis and Biological Evaluation of 5′-O-Fatty Acyl Ester Derivatives of 3′-Fluoro-2′,3′-dideoxythymidine as Potential Anti-HIV Microbicides” (Molecules, 2022)
